According to patent publication US11759480B2, “Compositions and methods for CAR T cell therapy” (ENDOCYTE, INC., priority 2017, dated 2023):

Assays:
MDA-MB-231 tumors [1] = settings: mouse, in vivo
Experimental: (§1) To evaluate whether mice with FITC-CAR-T therapy related sCRS can be rescued by using competitors which may displace EC17 from either FITC-CAR-T or FR+ tumor cells, 49 NSG mice bearing MDA-MB-231 tumors (150-250 mm3) were administered with excess FITC-CAR-T cells (8 million), 36 of them were then dosed with 500 nmol/kg EC17 48 hours post CAR-T administration, 6 of them were not dosed with EC17 and were used as “No EC17” control, and 7 of them were dosed with 260 umol/kg sodium fluorescein (no EC17 but Fluorescein) to test its toxicity. […] Each group was i.v. injected with 10 umol/kg of Leucovorin, or 10 umol/kg folic acid, or 260 umol/kg sodium fluorescein, or nothing as an un-rescued control. […] Mouse body weight changes were also monitored as the indication of toxicity. […] To evaluate whether the rescue injections affect the anti-tumor activity of FITC-CAR-T cells, these mice were dosed with 500 nmol/kg EC17 twice per week (days 9, 11, 15, 18, 22, 25, etc.) and the tumor size was monitored.

MDA-MB-231 tumors [2] = assay: Comparison of three rescue reagents (Example 32)
Experimental: as §1

[3] = system: MDA-MB-231 solid tumor xenografts; assay: Effect of FITC-Folate dose on anti-FITC CAR T cell response (Example 10); assay type: in vivo, NSG mice
Text: Five experimental groups: (1) anti-FITC CAR T cell with PBS; (2) anti-FITC CAR T cell with FITC-Folate (5 nmoles/kg); (3) anti-FITC CAR T cell with FITC-Folate (50 nmoles/kg); (4) anti-FITC CAR T cell with FITC-Folate (500 nmoles/kg); (5) anti-FITC CAR T cell with FITC-Folate (2500 nmoles/kg) were designed to identify the relationship between anti-FITC CAR T cell response and the dose of FITC-ligands. MDA-MB-231 cells were subcutaneously injected into the shoulders of NSG mice (Jackson Laboratory) to establish solid tumor xenografts. When tumor volume reached around 50-100 mm^3, anti-FITC CAR T cells (15×10^6 cells) and different doses of FITC-Folate were intravenously introduced into the mice.
To monitor anti-FITC CAR T cell activation with the different doses of FITC-Folate, IFN-gamma concentration was measured in mouse blood by a bead-based immunoassay (Legendplex kit from Biolegend). Tumor volume was also measured. General toxicity for each treatment group was monitored by measuring weight loss.

FR+ HEK-FRa xenografts = assay: FITC-CAR-T proliferation in HEK-FRa s.c. xenograft model (Example 37); assay type: in vivo, mice; settings: 500 nmol/kg three times per week
Experimental: The evaluation of FITC-CAR-T proliferation and related toxicity in both naïve mice and mice bearing FR+ tumor xenografts was tested. To evaluate whether FITC-CAR-T proliferation in vivo is dependent on the co-existence of the bridge (e.g. EC17) and the tumor antigen (e.g. folate receptor), FITC-CAR-T proliferation in vivo was compared in naïve mice and mice bearing FR+ tumor xenografts, either with or without EC17. 5-8 million CAR-T cells (as indicated in FIGS. 42 and 43) were administered (i.v.) into naïve mice without tumors and mice bearing FR+ tumor xenografts (80-200 mm3). 500 nmol/kg EC17 was dosed 4 hours before and three times per week post CAR-T administration, if desired. Mice were monitored for body weight changes and CAR-T cell count in blood circulation; some mice were also euthanized weekly to evaluate organs. […] CAR-T cell count in blood samples was also compared to evaluate CAR-T proliferation. […] Since the enlargement of spleen size is another indicator for CAR-T proliferation in vivo, spleen size was also measured as shown in FIG. 43B.
For FIG. 42, the MDA-MB-231 s.c. model was used. For FIG. 43A, the HEK-FRa s.c. xenograft model was used. For FIG. 43B, the MDA-MB-231 s.c. model was used.

[4] = system: naïve mice without tumors; assay: CAR-T cells with EC17 in naïve mice without tumors (Example 25); assay type: in vivo; settings: 500 nmoles/kg three times per week
Experimental: Five million CAR-T cells were injected (i.v.) into naïve mice without tumors. 500 nmoles/kg EC17 was administrated three times per week. Mice were monitored for 5 weeks, and some were euthanized every week to evaluate organs.

KB = assay: FITC-CAR-T/EC17 therapy, KB model (Example 28); assay type: in vivo, NSG mice
Experimental: To test whether FITC-CAR-T/EC17 therapy has anti-tumor activity in various FR+ tumor models, NSG mice were subcutaneously implanted with MDA-MB-231 (triple negative breast cancer cell line), OV90 (human ovarian cancer cell line), KB (human cervical adenocarcinoma cell line), SKOV-3 (human ovarian carcinoma cell line), or HEK293-FRa (HEK293 stably-transfected with human FRa). When tumor size reached […], one dose of EC17 at 500 nmol/kg of body weight was injected by tail vein followed with administering of 5 million FITC-CAR-T cells 4 hours later. 500 nmol/kg EC17 was dosed once every week after the initial EC17/CAR-T administration (about day 7), tumor size and body weights of mice were monitored three times per week. The EC17 dosing days were labeled as green dashed vertical lines in the graph. […] EC17 dose-dependent temporary body weight loss was also observed in all tumor bearing mice, indicating the activation of CAR-Ts is EC17-dependent in these mice.

MDA-MB-231 = assay: EC17 dependent anti-tumor activity, MDA-MB-231 xenograft (Example 26); assay type: in vivo, NSG mice; settings: 500 nmoles/kg once per week, 5 million CAR-T
Text: Immunodeficient NSG mice (Jackson Laboratory) were used to show the efficacy of CAR T cell anti-tumor activity with a single dose of EC17 per week. Two folate receptor expressing cancer cell lines were used to establish subcutaneous solid tumor xenografts: MDA-MB-231 has high folate receptor expression, while OV90 has low folate receptor expression. When tumor volume of around 100-250 mm^3 was reached, mice were divided into two groups. Mice in the “EC17 500 nmol/kg” group (nmol/kg is equivalent to nmoles/kg as used in this patent application for the bridge) were injected with 500 nmoles/kg of body weight of EC17, while mice in the “no EC17” group were not injected with EC17. Four hours later, mice in both groups were administered 5 million anti-FITC CAR-T cells. After initial administration of EC17 and CAR-T cells, only mice in the “EC17 500 nmol/kg” group were injected (i.v.) with 500 nmoles/kg of EC17 once per week. Anti-tumor efficacy was monitored by tumor volume.

Row | Compound | condition of mice (toxicity test) (MDA-MB-231 tumors [1]) | body weight loss compared to other rescue groups (MDA-MB-231 tumors [2]; 260 umol/kg) | order of sCRS severity (from worst to least) (MDA-MB-231 tumors [2]; 10 hours after rescue, Leucovorin 10, folic acid 10, sodium fluorescein 260 umol/kg) | mice with a tiny tumor left (MDA-MB-231 tumors [2]; day 36 post CAR T injection) | concentration of IFN-gamma versus FITC-Folate dose ([3]; 5, 50, 500, 2500 nmoles/kg, 15×10^6 CAR T cells) | dose with maximum toxicity (lowest survival rate) and highest anti-tumor efficacy ([3]; 15×10^6 CAR T cells) [nmol/kg] | anti-tumor efficacy of CAR T cells ([3]; FITC-Folate 2500 nmole/kg) | FITC-CAR-T proliferation (FR+ HEK-FRa xenografts) | CAR-T cell proliferation (blood count, spleen size) [4] | body weight ([4]; 5 million CAR-T, 5 weeks) | tumor response (KB; 500 nmol/kg weekly, 5 million FITC-CAR-T) | fraction of mice with sCRS (KB; day 23) | fraction of mice with sCRS (KB; day 37) | anti-tumor activity (MDA-MB-231)
1 | O=C([O-])c1ccccc1-c1c2ccc(=O)cc-2oc2cc([O-])ccc12.[Na+].[Na+] [sodium fluorescein] | healthy | least body weight loss | no rescue group>leucovorin rescue group>folic acid rescue group>sodium fluorescein rescue group>no EC17 group | 2 out of 9 |  |  |  |  |  |  |  |  |  | 
2 | Nc1nc2ncc(CNc3ccc(C(=O)NC(CCC(=O)NCCNC(=S)Nc4ccc(-c5c6ccc(=O)cc-6oc6cc(O)ccc56)c(C(=O)O)c4)C(=O)O)cc3)nc2c(=O)[nH]1 (centres unmarked) [EC17, FITC-Folate] |  |  |  |  | bell-shaped dose-response curve | 500 | started to decrease | rapid proliferation | did not proliferate | No apparent body weight loss | stable disease | ⅔ | ⅓ | eliminate MDA-MB-231 tumors
